{"source": "paper PMC4488747", "about": "“Inhibition of P-glycoprotein Gene Expression and Function Enhances Triptolide-induced Hepatotoxicity in Mice” (Scientific Reports, 2015)", "type_in_all_cases": "in vivo", "key": {"[1]": {"test": "Triptolide plasma toxicokinetics in mice", "conditions": "TP 1.0 mg/kg iv", "method": "For TP plasma kinetic study and toxicological evaluation, mice were divided into four groups (n = 5 each) to collect blood and tissue samples: (1) normal + saline group; (2) 1.0 mg/kg TP + 15 nmol NC-siRNA group; (3) 1.0 mg/kg TP + 15 nmol mdr1a-siRNA group; (4) 1.0 mg/kg TP + 10 mg/kg tariquidar group. In order to avoid the complication caused by drug absorption or possible intestinal first-pass effect, TP and the inhibitor were intravenously administrated to mice. The siRNA group was intravenously injected with NC-siRNA or mdr1a-siRNA 2 days before TP dose. For TP + tariquidar group, the mice were received an intravenous tariquidar dose 20 min prior to the TP injection. Blood samples were collected at 2, 5, 10, 15, 30, 60 and 120 min after TP dosing. To assess the liver exposure of TP, liver tissue samples were collected from another set of mice at 5, 30, 60 and 120 min after dosing. Three TP groups were design for this experiment, including TP + NC-siRNA group, TP + mdr1a-siRNA group and TP + tariquidar group. The liver tissue samples were weighed and then homogenized in 10 volume (w:v) of ice-cold saline. The concentrations of TP in plasma and liver tissue were measured by a validated LC-MS/MS method. Prior to the above animal study, a preliminary experiment was performed to assess the possible differences in liver P-gp protein expression (Figure S1) and TP plasma kinetics between NC-siRNA treated mice and normal mice (with saline) (Figure S2 and supplemental Table 1). […] Therefore, NC-siRNA group was used as the control in the following animal study.\nThe TP in plasma and tissue samples was quantitatively analyzed by a published LC-MS/MS method. The method was slightly modified and validated for analysis of plasma and liver tissue samples. Plasma and tissue homogenate were pretreated with 3-fold volume of methanol-acetonitrile (1:1, v/v) containing 20 ng/ml propranolol to precipitate proteins, and then centrifuged at 4°C, 14,000 g for 10 min. The supernatant (10 μl) was injected into LC-MS/MS for analysis. An Aglient 6410B triple quadrupole mass spectrometer equipped with Agilent1290 Infinity UHPLC system (Agilent Technologies, Santa Clara, CA) was used. TP and propranolol (internal standard, IS) were eluted from an Agilent C18 column (dp = 3.5 μm, 2.1 × 50 mm, Agilent, MA) using a mobile phase gradient (A: water with 0.1% formic acid and 2.5 mM ammonium formate, B: acetonitrile with 0.1% formic acid). The gradient was run as: 0–2.5 min hold at 95% B; 2.5–3 min, a linear gradient to 10% B; 3–4 min hold at 10% B. Flow rate was 0.2 ml/min. TP and propranolol were detected in positive ion mode using single reaction monitoring: TP, m/z 378.1/360.1, IS, m/z 260.0/116.0. Under the above optimized condition, no significant endogenous interferences were detected at the peak regions for TP and IS in all the biological specimens. The calibration curves of TP were linear (r^2 > 0.99) over the concentration range of 1–1000 ng/ml. The lower limit of quantification was at 1 ng/ml. The intra and inter-day precisions (RSD) were all below 11% and the assay accuracies (RE) were in the range from 87% to 113%. The recovery was above 80% for both plasma and tissue samples.\nToxicokinetic parameters, including area under the plasma concentration-time curve (AUC), volume of distribution (Vd), clearance (CL), mean residence time (MRT) and terminal elimination half-life (t1/2), were calculated by non-compartmental analysis using WinNonlin 5.2 software (Pharsight Corporation, CA, USA). All the data were expressed as mean ± SD. Differences between groups were compared by Student’s t-test for analysis of unpaired data or one-way ANOVA. Statistical significance was accepted at P < 0.05."}, "BALB/C mice": {"system": "BALB/C mice", "test": "Liver histopathology (HE staining) in mice", "conditions": "TP 1 mg/kg iv, 24 h, TP = NC-siRNA group, tariquidar and mdr1a-1 siRNA = given before TP", "method": "For TP plasma kinetic study and toxicological evaluation, mice were divided into four groups (n = 5 each) to collect blood and tissue samples: (1) normal + saline group; (2) 1.0 mg/kg TP + 15 nmol NC-siRNA group; (3) 1.0 mg/kg TP + 15 nmol mdr1a-siRNA group; (4) 1.0 mg/kg TP + 10 mg/kg tariquidar group. In order to avoid the complication caused by drug absorption or possible intestinal first-pass effect, TP and the inhibitor were intravenously administrated to mice. The siRNA group was intravenously injected with NC-siRNA or mdr1a-siRNA 2 days before TP dose. For TP + tariquidar group, the mice were received an intravenous tariquidar dose 20 min prior to the TP injection. Blood samples were collected at 2, 5, 10, 15, 30, 60 and 120 min after TP dosing. To assess the liver exposure of TP, liver tissue samples were collected from another set of mice at 5, 30, 60 and 120 min after dosing. […] The concentrations of TP in plasma and liver tissue were measured by a validated LC-MS/MS method. […]\n(§1) At 24 h of TP treatment, blood and liver tissue samples were collected from the mice in plasma kinetic study. Serum ALT and AST levels were determined with a CL8000 automated biochemical analyzer (Shimadzu, Japan) after serum was separated by centrifugation at 900 g for 10 min. […] The total protein concentration was quantified by the BCA assay. Bcl-2 and Bax proteins were measured by western blot."}, "Bcl-2/Bax": {"system": "Bcl-2/Bax", "test": "Bcl-2 and Bax expression in mouse liver (western blot)", "conditions": "mice, TP 1 mg/kg iv, 24 h; tariquidar and mdr1a-siRNA = given before TP", "method": "For protein extraction, the cells or mice liver tissues were homogenized in RIPA buffer and then centrifuged at 14,000 g at 4 °C for 30 min. The supernatant was collected and the protein concentration was measured using BCA assay. The sample (50 μg protein/sample) was then loaded on 12% polyacrylamide gels and transferred to polyvinylidene difluoride membranes (Millipore, USA). After blocked by 3% bovine serum albumin, the membranes were incubated with primary antibodies and HRP-conjugated secondary antibody, and then detected using the enhanced chemiluminescence plus detection system (Molecular Device, Lmax, USA). The density of each band was quantified by using image analysis software (Science Lab 2005 Image Guage; Tokyo, Japan).\nas §1, with “min. Liver tissue samples were divided into two parts, the first half was kept at −80 °C until MDA and SOD measurements using MDA and SOD assay kits (Nanjing Jiancheng Bioengineering Institute, Nanjing, China) according to the manufacturer’s instructions.” for “min.”"}, "[2]": {"conditions": "C57, mouse, iv, 1 mg/kg, 15 nmol NC-siRNA iv 2 days before (control)"}, "[3]": {"conditions": "C57, mouse, iv, 1 mg/kg, 15 nmol mdr1a-siRNA iv 2 days before"}, "[4]": {"conditions": "C57, mouse, iv, 1 mg/kg, with tariquidar 10 mg/kg iv, 20 min before TP, tariquidar 10 mg/kg iv 20 min prior"}, "[5]": {"conditions": "15 nmol NC-siRNA iv 2 days before (control)"}, "[6]": {"conditions": "15 nmol mdr1a-siRNA iv 2 days before"}}, "note": "Where two headings read alike, the source gives them in different places.", "data": [{"smiles": "CC(C)[C@]12O[C@H]1[C@@H]1O[C@]13[C@]1(O[C@H]1C[C@H]1C4=C(CC[C@@]13C)C(=O)OC4)[C@@H]2O", "note": "[TP, Triptolide]", "values": [{"measurement": "MRT", "setting": "[1]; C57, mouse, 15 nmol NC-siRNA iv 2 days before (control)", "value": "20.4 ± 7.8", "unit": "min"}, {"measurement": "AUC(0-t)", "setting": "[1]; [2]", "value": "104 ± 9.6", "unit": "ng·h/mL"}, {"measurement": "Vd", "setting": "[1]; [2]", "value": "4.8 ± 1.1", "unit": "L/kg"}, {"measurement": "half-life", "setting": "[1]; [2]", "value": "20.4 ± 8.4", "unit": "min"}, {"measurement": "Cmax", "setting": "[1]; C57, mouse, iv, 1 mg/kg, 15 nmol NC-siRNA iv 2 days before (control), read-out: Cmax", "value": "413 ± 74", "unit": "ng/mL"}, {"measurement": "AUC(0-t)", "setting": "[1]; [3]", "value": "154 ± 30.2", "unit": "ng·h/mL"}, {"measurement": "Vd", "setting": "[1]; [3]", "value": "3.3 ± 0.7", "unit": "L/kg"}, {"measurement": "half-life", "setting": "[1]; [3]", "value": "29.4 ± 13.8", "unit": "min"}, {"measurement": "Cmax", "setting": "[1]; C57, mouse, iv, 1 mg/kg, 15 nmol mdr1a-siRNA iv 2 days before, read-out: Cmax", "value": "510 ± 94", "unit": "ng/mL"}, {"measurement": "AUC(0-t)", "setting": "[1]; [4]", "value": "146 ± 24.6", "unit": "ng·h/mL"}, {"measurement": "Vd", "setting": "[1]; [4]", "value": "3.9 ± 1.3", "unit": "L/kg"}, {"measurement": "half-life", "setting": "[1]; [4]", "value": "29.4 ± 13.2", "unit": "min"}, {"measurement": "Cmax", "setting": "[1]; C57, mouse, iv, 1 mg/kg, with tariquidar 10 mg/kg iv, 20 min before TP, tariquidar 10 mg/kg iv 20 min prior, read-out: Cmax", "value": "472 ± 66.5", "unit": "ng/mL"}, {"measurement": "CL", "setting": "[1]; [5]", "value": "573.84 ± 61.452", "unit": "L/h/kg"}, {"measurement": "Cmax", "setting": "[1]; [5]", "value": "413.1 ± 74.2", "unit": "ng/mL"}, {"measurement": "CL", "setting": "[1]; [6]", "value": "345.32 ± 72.006", "unit": "L/h/kg"}, {"measurement": "Cmax", "setting": "[1]; [6]", "value": "509.7 ± 94.1", "unit": "ng/mL"}, {"measurement": "MRT", "setting": "[1]; mouse, 15 nmol mdr1a-siRNA iv 2 days before", "value": "30.6 ± 13.8", "unit": "min"}, {"measurement": "MRT", "setting": "[1]; mouse, with tariquidar 10 mg/kg iv, 20 min before TP, tariquidar 10 mg/kg iv 20 min prior", "value": "30 ± 13.2", "unit": "min"}, {"measurement": "Histopathological changes in liver (HE)", "setting": "BALB/C mice", "value": "hepatocellular hydropic degeneration and vacuolization"}, {"measurement": "Bcl-2/Bax ratio in liver", "setting": "Bcl-2/Bax", "value": "significantly reduced"}]}]}
